Reference: PMC8284473, “Preliminary Characterization of NP339, a Novel Polyarginine Peptide with Broad Antifungal Activity” (Antimicrobial Agents and Chemotherapy, 2021)

Experiments:
[1] = Tolerability in mouse models of infection; assay type: in vivo; conditions: at the therapeutic doses and duration of therapy used
Experimental: In all experiments, the animals were housed 4 or 5/cage in sterilized individual ventilated cages exposing the mice at all times to HEPA-filtered sterile air. Food and water were available ad libitum, and sterile aspen chip bedding was changed at least once weekly. The room temperature was 22 ± 1°C, with a relative humidity of 60% and maximum background noise of 56 dB. Mice were exposed to 12-h light/dark cycles. Before the experiments, the animals were randomly divided into groups. After the experiments, the animals were sacrificed by humane euthanasia by delivering 0.5 ml of 200 mg/ml pentobarbital solution via intraperitoneal injection. For quantification of fungal burden, samples were diluted appropriately and then quantitatively cultured on to SAB containing 0.05 mg/ml chloramphenicol and incubated at 37°C for 24 to 48 h before enumeration.
Male CD1 mice (n = 24 mice, 6 to 8 weeks of age, average weight of 23.5 g) were obtained from Charles River, Margate, United Kingdom. […] The mice were culled 29 h postinfection, and fungal kidney burdens were determined by plating as previously described.
Female BALB/c mice (n = 24 mice, 6 to 8 weeks of age, weight of 16 to 18 g) were obtained from Charles River, Margate, United Kingdom. […] At 3 days postinfection, fungal burdens in vaginal lavage samples were determined as described above. […]

human whole blood = human whole blood exposed to the peptide; data not shown
[2] = test system: A549 epithelial lung cell line; test: NP339 cytotoxicity, LIVE/DEAD staining; assay type: cell-based, human; conditions: A549 monolayer, 3 h, 37°C, RPMI 1640; concentrations hundreds of folds above antifungal; n = 2
Experimental: Lung epithelial cells (A549 cells; ATCC [distributed by LGC Promochem, Teddington, United Kingdom]) were cultured in a 96-well plate in Ham’s F-12K medium (Fisher Scientific UK, Ltd.) supplemented with 10% (vol/vol) fetal bovine serum. The cells were incubated under 5% CO2 at 37°C until 90% confluent. NP339 solutions and 0.25% SDS (the kill control) were prepared in prewarmed RPMI 1640 medium. Once the cells reached 90% confluence, the culture medium was removed from the 96-well plate, taking care not to disturb the cells, and 100 μl of NP339 solution was added to the cell monolayer. The plates were incubated at 37°C under 5% CO2 for 3 h. Toxicity was determined using the Molecular Probes LIVE/DEAD Viability/Cytotoxicity kit, as per the manufacturer’s instructions. As the kill control, 0.25% (wt/vol) SDS was used. Untreated cells were the live control (cells incubated with the medium).

human PBMCs = test: NP339 cytotoxicity, LIVE/DEAD staining; assay type: cell-based; conditions: human PBMCs 5 × 10^5 cells/well, 2 h, 37°C, RPMI 1640; concentrations hundreds of folds above antifungal; n = 2
Experimental: PBMCs were isolated from fresh human whole blood using Leucosep tubes (Greiner Bio-One), according to the manufacturer’s instructions. The cells were suspended in RPMI 1640 medium (5 × 10^6 cells/ml) and transferred to 96-well plate (5 × 10^5 cells/well). NP339 solutions were prepared in prewarmed RPMI 1640 medium and added to the cell suspension. The plates were incubated at 37°C under 5% CO2 for 2 h. Toxicity was determined using the Molecular Probes LIVE/DEAD Viability/Cytotoxicity kit (Fisher Scientific UK, Ltd.). As the kill control, 0.1% (vol/vol) Triton X-100 was used. Untreated cells were the live control.

## N=C(N)NCCC[C@H](NC(=O)[C@H](CCCNC(=N)N)NC(=O)[C@H](CCCNC(=N)N)NC(=O)[C@H](CCCNC(=N)N)NC(=O)[C@H](CCCNC(=N)N)NC(=O)[C@H](CCCNC(=N)N)NC(=O)[C@H](CCCNC(=N)N)NC(=O)[C@H](CCCNC(=N)N)NC(=O)[C@H](CCCNC(=N)N)NC(=O)[C@H](CCCNC(=N)N)NC(=O)[C@H](CCCNC(=N)N)NC(=O)[C@H](CCCNC(=N)N)NC(=O)[C@@H](N)CCCNC(=N)N)C(=O)O [NP339]
[1]
  Tolerability: well tolerated
Human whole blood
  Nonspecific immune response (cytokine measurements): did not elicit a nonspecific immune response
[2]
  Cytotoxicity (live/dead cell ratio): not toxic
Human PBMCs
  Cytotoxicity (live/dead cell ratio): not toxic
